Article PMC10647736, “Aza Analogs of the TRPML1 Inhibitor Estradiol Methyl Ether (EDME)” (Molecules, 2023)
pIC50: −log10 of the molar value. Entries after “also recorded” stand apart in the source; their conditions may differ. Read-outs that look alike come from different tables or passages of the source.

Experiments:
[1] = target: T1, hTRPML1ΔNC-YFP, a plasma membrane variant of wild-type TRPML1 (Homo sapiens, UniProt Q9GZU1); set-up: method as in PMID 33859333; settings: previous work, cited from earlier work; for pIC50: hTRPML1ΔNC-YFP, read-out: IC50 TRPML1 inhibition
[2] = target: T1, hTRPML1ΔNC-YFP, a plasma membrane variant of wild-type TRPML1; assay: TRPML1 inhibition, fluorimetric Ca2+ influx assay (Fluo-4/AM) on HEK293 cells stably expressing plasma membrane-targeted TRPML1; assay type: cell-based; settings: for pIC50 / TRPML1-inhibitory activity (in words): hTRPML1ΔNC-YFP; for pIC50: HEK293 cells, Ca2+ influx, Fluo-4/AM; for TRPML1-inhibitory activity (in words): Ca2+ influx assay
Description: The two target compounds, pyridine analog 1 and pyrimidine analog 2, as well as the inadvertently obtained pyridone analog 6 were submitted to our previously described test for inhibition of TRPML1 on hTRPML1ΔNC-YFP, a plasma membrane variant of wild-type TRPML1 by means of a fluorimetric Ca^2+ influx assay.
hTRPML1ΔNC-YFP, a plasma membrane variant of wild-type TRPML1, was obtained from HEK293 cells stably expressing plasma membrane-targeted TRPML1 by trypsination and after resuspending in HEPES buffered solution. IC50 values for TRPML1 inhibition were determined on a fluorescence imaging plate reader built into a robotic liquid handling station (Freedom Evo 150, Tecan, Mannedorf, Switzerland) using the calcium dye Fluo-4/AM (Invitrogen, Thermo Fisher Scientific, Waltham, MA, USA) according to the test procedure described in our previous work in the section Compound screening and generation of concentration–response curves.

[3] = set-up: method as in PMID 33859333; settings: compared to EDME; cited from earlier work

T1 sequence (Q9GZU1 whole entry, stated change not applied): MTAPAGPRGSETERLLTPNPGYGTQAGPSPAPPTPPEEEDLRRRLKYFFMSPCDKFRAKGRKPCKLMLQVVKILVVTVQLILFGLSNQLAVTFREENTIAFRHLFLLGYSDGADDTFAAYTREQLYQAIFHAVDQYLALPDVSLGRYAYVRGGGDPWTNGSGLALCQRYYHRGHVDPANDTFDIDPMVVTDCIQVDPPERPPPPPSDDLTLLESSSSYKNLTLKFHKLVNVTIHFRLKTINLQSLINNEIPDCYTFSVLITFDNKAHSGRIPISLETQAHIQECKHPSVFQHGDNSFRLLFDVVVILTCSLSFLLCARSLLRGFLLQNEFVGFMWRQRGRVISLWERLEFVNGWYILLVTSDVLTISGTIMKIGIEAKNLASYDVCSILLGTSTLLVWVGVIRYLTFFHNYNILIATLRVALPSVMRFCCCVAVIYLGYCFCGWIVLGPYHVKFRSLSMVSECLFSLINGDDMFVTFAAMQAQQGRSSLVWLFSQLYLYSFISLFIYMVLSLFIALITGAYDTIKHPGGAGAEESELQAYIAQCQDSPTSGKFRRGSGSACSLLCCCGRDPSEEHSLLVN

| SMILES | pIC50 [1] | pIC50 [2] | other results |
| --- | --- | --- | --- |
| C[C@]12CC[C@@H]3c4ccc(O)cc4CC[C@H]3[C@@H]1CC[C@@H]2O [17β-estradiol] | 5.28 | – | – |
| COc1ccc2c(c1)CC[C@@H]1[C@@H]2CC[C@]2(C)[C@@H](O)CC[C@@H]12 [EDME, estradiol methyl ether] | 6.22 | 6.22 | – |
| C[C@]12CC[C@@H]3c4ccc(=O)[nH]c4CC[C@H]3[C@@H]1CC[C@@H]2O [Compound 6, (4bS,6aS,7S,9aS,9bR)-7-hydroxy-6a-methyl-1,4b,5,6,6a,7,8,9,9a,9b,10,11-dodecahydro-2H-indeno[5,4-f]quinolin-2-one] | – | 4.40 | TRPML1-inhibitory activity (in words) [2]: virtually inactive; TRPML1-inhibitory activity (in words) ([2]; listed as pyridone analog): completely inactive |
| COc1ccc2c(n1)CC[C@@H]1[C@@H]2CC[C@]2(C)[C@@H](O)CC[C@@H]12 [Compound 1, (4bS,6aS,7S,9aS,9bR)-2-Methoxy-6a-methyl-4b,6,6a,7,8,9,9a,9b,10,11-decahydro-5H-indeno[5,4-f]quinolin-7-ol] | – | 6.00 | melting point: 157 °C; TRPML1-inhibitory activity, factor less potent than EDME ([2]; compared to EDME): < 2 |
| C=Cc1ccc2c(c1)CC[C@@H]1[C@@H]2CC[C@]2(C)[C@@H](O)CC[C@@H]12 [PRU-10] | 6.39 | – | estrogenic activity (in words) [3]: reduced estrogenic activity |
| COc1ncc2c(n1)CC[C@@H]1[C@@H]2CC[C@]2(C)[C@@H](O)CC[C@@H]12 [Compound 2, (4bS,6aS,7S,9aS,9bR)-2-Methoxy-6a-methyl-4b,6,6a,7,8,9,9a,9b,10,11-decahydro-5H-indeno[5,4-f]quinazolin-7-ol] | – | 5.06 | TRPML1-inhibitory activity (in words) [2]: only a very weak inhibitor; also recorded: significantly lost inhibitory potency |
| C#C[C@]1(O)CC[C@H]2[C@@H]3CCc4cc(OC)ccc4[C@H]3CC[C@@]21C [mestranol] | – | – | TRPML1 inhibition (in words) [1]: considerable activity |
| CC(=O)c1ccc2c(c1)CC[C@@H]1[C@@H]2CC[C@]2(C)[C@@H](O)CC[C@@H]12 [PRU-12] | 6.55 | – | estrogenic activity (in words) [3]: reduced estrogenic activity |
